Source: US10344019B2 (priority 2010, dated 2019)
Where two headings read alike, the source gives them in different places.

Tests used:
Type in all cases: cell-based
[1] = system: HCV 1a RLuc cells (dicistronic genotype 1a H77 replicon, RLuc reporter); test: microbe, parasite or virus in culture; conditions: Hepatitis C virus, read-out: 1a
Outline: (§1)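 Replicon cells stably carrying the listed RLuc-encoding dicistronic replicons were seeded and treated with DMSO serial dilutions of compound (10 mM stocks) diluted into culture medium. After 72 h, cells were lysed and Renilla luciferase activity measured. EC50 was derived by non-linear regression.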

[2] = system: HCV 1b RLuc cells (dicistronic genotype 1b Con1 replicon, RLuc reporter); test: microbe, parasite or virus in culture; conditions: Hepatitis C virus, read-out: 1b (nM)
Outline: as §1

[3] = system: HCV 2a JFH-1 Rluc cells (dicistronic genotype 2a JFH-1 replicon, RLuc reporter); test: microbe, parasite or virus in culture; conditions: Hepatitis C virus, read-out: 2a JFH
Outline: as §1

[4] = system: HCV 2b Rluc cells (NS5A chimeric genotype 2a JFH-1 replicon with genotype 2b MD2b-1 NS5A gene, M31 present); test: microbe, parasite or virus in culture; conditions: Hepatitis C virus, read-out: 2b
Outline: as §1

[5] = system: HCV 3a RLuc cells (NS5A chimeric genotype 1b Con1 replicon with consensus genotype 3a NS5A gene); test: microbe, parasite or virus in culture; conditions: Hepatitis C virus
Outline: as §1

[6] = system: HCV 4a Rluc cells (NS5A chimeric genotype 1b Con1 replicon with genotype 4a NS5A gene); test: microbe, parasite or virus in culture; conditions: Hepatitis C virus, read-out: 4a
Outline: as §1

[7] = system: Q30R in genotype 1a NS5A, 1a Rluc replicon transfected into Huh-7 cured-51 cells; test: HCV replicon assay, resistance mutant 1a Q30R; conditions: Hepatitis C virus, Huh-7, read-out: 1a Q30R
Outline: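 Q30R introduced into genotype 1a H77 RLuc replicon by site-directed mutagenesis; replicon RNA transfected into Huh-7 cured-51 cells.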

[8] = system: HCV 2a Rluc cells (NS5A chimeric genotype 2a JFH-1 replicon with genotype 2a J6 strain NS5A gene, M31 present); test: HCV replicon reporter assay, genotype 2a J6 (M31 present); conditions: Hepatitis C virus, read-out: 2a J6
Outline: as §1

[9] = genotype 2a JFH-1 RLuc replicon
[10] = read-out: 3a, genotype 3a NS5A chimeric replicon
[11] = read-out: 3a, genotype 3a replicon

SMILES | EC50 ([1]; genotype 1a H77 RLuc replicon) [nM] | EC50 [2] [nM] | EC50 [3, 9] [nM] | EC50 [4] [nM] | EC50 [5, 10] [nM] | EC50 [6] [nM] | EC50 [7] [nM] | EC50 [8] [nM] | EC50 ([1]; genotype 1a replicon) [nM] | EC50 ([3]; genotype 2a JFH-1 replicon) [nM] | EC50 [5, 11] [nM]
COC(=O)N[C@H](C(=O)N1C[C@@H](C)C[C@H]1c1nc2ccc3cc4c(cc3c2[nH]1)OCc1cc(-c2cnc([C@@H]3CCCN3C(=O)[C@H](NC(=O)OC)c3ccccc3)[nH]2)ccc1-4)C(C)C [Example 565] | 0.001 to 0.999 | 0.017 | 0.001 to 0.999 | 0.001 to 0.999 | 0.001 to 0.99 | 0.001 to 0.99 | 0.001 to 0.999 | 0.001 to 0.999 | – | – | –
COC[C@H]1C[C@@H](c2nc3ccc4cc(-c5ccc6c(ccc7nc([C@@H]8CCCN8C(=O)[C@@H](NC(=O)OC)C(C)C)[nH]c76)c5)ccc4c3[nH]2)N(C(=O)[C@@H](NC(=O)OC)C(C)C)C1 [Example 398] | – | 0.023 | – | 0.001 to 0.999 | – | 0.001 to 0.99 | 0.001 to 0.999 | 0.001 to 0.999 | 0.001 to 0.999 | 0.001 to 0.999 | 0.001 to 0.99
COC[C@H]1C[C@@H](c2nc3ccc4cc5c(cc4c3[nH]2)OCc2cc(-c3cnc([C@@H]4C[C@H](C)CN4C(=O)[C@@H](NC(=O)OC)C(C)C)[nH]3)ccc2-5)N(C(=O)[C@@H](NC(=O)OC)C(C)C)C1 [Example 562] | 0.001 to 0.999 | 0.019 | 0.001 to 0.999 | 0.001 to 0.999 | 0.001 to 0.99 | 0.001 to 0.99 | 0.001 to 0.999 | 0.001 to 0.999 | – | – | –
COC[C@H]1C[C@@H](c2nc3ccc4cc5c(cc4c3[nH]2)OCc2cc(-c3cnc([C@@H]4CC[C@H](C)N4C(=O)[C@@H](NC(=O)OC)C(C)C)[nH]3)ccc2-5)N(C(=O)[C@@H](NC(=O)OC)C(C)C)C1 [Example 561] | 0.001 to 0.999 | 0.01 | 0.001 to 0.999 | 0.001 to 0.999 | 0.001 to 0.99 | 0.001 to 0.99 | 0.001 to 0.999 | 0.001 to 0.999 | – | – | –
COC[C@H]1C[C@@H](c2nc3ccc4cc(-c5ccc6c(ccc7nc([C@@H]8CC[C@H](C)N8C(=O)[C@@H](NC(=O)OC)C(C)C)[nH]c76)c5)ccc4c3[nH]2)N(C(=O)[C@H](NC(=O)OC)c2ccccc2)C1 [Example 554] | 0.001 to 0.999 | 0.012 | 0.001 to 0.999 | 0.001 to 0.999 | 0.001 to 0.99 | 0.001 to 0.99 | 0.001 to 0.999 | 0.001 to 0.999 | – | – | –
COC[C@H]1C[C@@H](c2nc3ccc4cc(-c5ccc6c(ccc7nc([C@@H]8C[C@H](COC)CN8C(=O)[C@H](NC(=O)OC)c8ccccc8)[nH]c76)c5)ccc4c3[nH]2)N(C(=O)[C@@H](NC(=O)OC)C(C)C)C1 [Example 437] | – | 0.048 | – | 0.001 to 0.999 | – | 0.001 to 0.99 | 0.001 to 0.999 | 0.001 to 0.999 | 0.001 to 0.999 | 0.001 to 0.999 | 0.001 to 0.99
COC[C@H]1C[C@@H](c2nc3ccc4cc(-c5ccc6c(ccc7nc([C@@H]8C[C@H](C)CN8C(=O)[C@@H](NC(=O)OC)C(C)C)[nH]c76)c5)ccc4c3[nH]2)N(C(=O)[C@@H](NC(=O)OC)C(C)C)C1 [Example 568] | 0.001 to 0.999 | 0.021 | 0.001 to 0.999 | 0.001 to 0.999 | 0.001 to 0.99 | 0.001 to 0.99 | 0.001 to 0.999 | 0.001 to 0.999 | – | – | –
COC[C@H]1C[C@@H](c2nc3ccc4cc(-c5ccc(-c6[nH]c([C@@H]7CCCN7C(=O)[C@H](NC(=O)C7CC7)c7ccccc7)nc6C)cc5)ccc4c3[nH]2)N(C(=O)[C@@H](NC(=O)OC)C(C)C)C1 [Example 525] | 0.001 to 0.999 | 0.038 | 0.001 to 0.999 | 0.001 to 0.999 | 0.001 to 0.99 | 0.001 to 0.99 | 0.001 to 0.999 | 0.001 to 0.999 | – | – | –
COC(=O)N[C@H](C(=O)N1[C@H]2CC[C@H](C2)[C@H]1c1nc2ccc3cc(-c4ccc5c(ccc6nc([C@@H]7CCCN7C(=O)[C@H](NC(=O)OC)c7ccccc7)[nH]c65)c4)ccc3c2[nH]1)C(C)C [Example 430] | – | 0.036 | – | 0.001 to 0.999 | – | 0.001 to 0.99 | 1 to 44 | 0.001 to 0.999 | 0.001 to 0.999 | 0.001 to 0.999 | 0.001 to 0.99
